From publication PMC7782793, “Hydroxamic acid-modified peptide microarrays for profiling isozyme-selective interactions and inhibition of histone deacetylases” (Nature Communications, 2021)
Values joined by “and” are separate entries in the source; they are usually repeats but may differ in a detail not shown here. Identical values can stand only once. Marks after values point to notes of the source that are not given here. Non-standard residues stand in square brackets, D forms with d. Residues, ends and D or L forms follow the SMILES beside them. *: point of attachment. Asu = N[C@@H](CCCCCC(=O)O)C(=O)O; NHOH = ON*

How the values were obtained:
Format in all cases: biochemical
HDAC6 = molecular target: T1, HDAC6 (Homo sapiens, UniProt Q9UBN7); experiment: HDAC inhibition assay (fluorogenic, Ac-Leu-Gly-Lys(Ac)-AMC); conditions: HDAC6, replicates
T1 construct: HDAC6 (full length, BPS Bioscience, cat. #: 50056); purchased BPS Bioscience 50056
T1 sequence (Q9UBN7 1-1215): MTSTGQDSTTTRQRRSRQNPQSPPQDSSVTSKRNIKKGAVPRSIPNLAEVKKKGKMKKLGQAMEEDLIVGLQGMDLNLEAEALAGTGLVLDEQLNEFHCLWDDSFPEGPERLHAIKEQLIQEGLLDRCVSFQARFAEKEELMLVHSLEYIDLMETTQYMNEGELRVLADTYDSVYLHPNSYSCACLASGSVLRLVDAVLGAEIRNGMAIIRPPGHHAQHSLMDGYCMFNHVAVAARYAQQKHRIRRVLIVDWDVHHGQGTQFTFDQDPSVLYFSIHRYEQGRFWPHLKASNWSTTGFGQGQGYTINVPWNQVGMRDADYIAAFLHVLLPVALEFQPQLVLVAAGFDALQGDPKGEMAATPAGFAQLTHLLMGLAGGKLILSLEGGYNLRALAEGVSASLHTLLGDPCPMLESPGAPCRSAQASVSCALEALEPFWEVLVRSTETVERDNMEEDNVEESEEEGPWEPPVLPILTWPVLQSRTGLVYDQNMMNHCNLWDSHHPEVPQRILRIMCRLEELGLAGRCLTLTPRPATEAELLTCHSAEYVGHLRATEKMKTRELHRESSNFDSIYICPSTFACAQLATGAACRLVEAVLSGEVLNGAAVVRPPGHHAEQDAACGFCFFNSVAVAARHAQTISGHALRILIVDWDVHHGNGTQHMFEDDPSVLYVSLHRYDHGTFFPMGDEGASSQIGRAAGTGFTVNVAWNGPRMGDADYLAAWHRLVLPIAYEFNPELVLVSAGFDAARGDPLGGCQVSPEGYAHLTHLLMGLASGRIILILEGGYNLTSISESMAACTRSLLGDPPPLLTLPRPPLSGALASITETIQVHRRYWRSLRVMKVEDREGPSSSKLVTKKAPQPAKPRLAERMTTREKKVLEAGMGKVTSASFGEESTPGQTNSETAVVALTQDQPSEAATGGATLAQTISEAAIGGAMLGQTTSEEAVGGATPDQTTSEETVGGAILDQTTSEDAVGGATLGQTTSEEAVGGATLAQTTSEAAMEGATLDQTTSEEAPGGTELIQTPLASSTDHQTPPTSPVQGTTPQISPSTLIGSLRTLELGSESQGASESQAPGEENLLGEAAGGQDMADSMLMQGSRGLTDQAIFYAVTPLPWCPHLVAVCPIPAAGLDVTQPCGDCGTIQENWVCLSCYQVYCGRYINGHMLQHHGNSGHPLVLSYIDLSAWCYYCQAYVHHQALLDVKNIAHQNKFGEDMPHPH

HDAC2 = molecular target: T2, HDAC2 (Homo sapiens, UniProt Q92769); experiment: as above; conditions: HDAC2, replicates
T2 construct: HDAC2 (full length, C-terminal His tag, BPS Bioscience, cat. #: 50002); purchased BPS Bioscience 50002
T2 sequence (Q92769 whole entry): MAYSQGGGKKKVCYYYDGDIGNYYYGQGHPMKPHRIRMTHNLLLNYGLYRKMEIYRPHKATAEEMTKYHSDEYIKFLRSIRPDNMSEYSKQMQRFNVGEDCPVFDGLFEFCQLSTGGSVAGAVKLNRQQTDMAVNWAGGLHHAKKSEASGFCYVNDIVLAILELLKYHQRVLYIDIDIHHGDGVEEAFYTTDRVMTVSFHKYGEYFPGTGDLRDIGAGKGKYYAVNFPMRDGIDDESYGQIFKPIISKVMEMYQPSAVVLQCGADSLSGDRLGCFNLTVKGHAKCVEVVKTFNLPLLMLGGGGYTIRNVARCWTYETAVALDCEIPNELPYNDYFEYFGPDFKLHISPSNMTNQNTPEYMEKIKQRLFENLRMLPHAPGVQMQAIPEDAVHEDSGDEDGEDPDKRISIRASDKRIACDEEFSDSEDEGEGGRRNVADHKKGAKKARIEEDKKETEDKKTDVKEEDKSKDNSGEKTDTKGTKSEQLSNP

HDAC8 = molecular target: T3, HDAC8 (Homo sapiens, UniProt Q9BY41); experiment: HDAC inhibition assay (fluorogenic, Ac-Leu-Gly-Lys(Tfa)-AMC); conditions: HDAC8, replicates
T3 construct: HDAC8 (full length, C-terminal His tag, BPS Bioscience, cat. #: 50008); purchased BPS Bioscience 50008
T3 sequence (Q9BY41 1-377): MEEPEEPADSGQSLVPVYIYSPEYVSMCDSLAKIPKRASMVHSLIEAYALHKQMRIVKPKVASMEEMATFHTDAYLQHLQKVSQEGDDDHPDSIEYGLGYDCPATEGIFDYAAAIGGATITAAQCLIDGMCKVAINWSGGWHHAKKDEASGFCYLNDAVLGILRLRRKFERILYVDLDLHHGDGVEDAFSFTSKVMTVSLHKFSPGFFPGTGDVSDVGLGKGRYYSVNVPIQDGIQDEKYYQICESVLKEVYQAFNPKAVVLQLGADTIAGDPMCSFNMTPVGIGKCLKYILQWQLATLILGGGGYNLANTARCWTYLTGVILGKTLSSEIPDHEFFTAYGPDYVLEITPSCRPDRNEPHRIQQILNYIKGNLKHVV

HDAC1 = molecular target: T4, HDAC1 (Homo sapiens, UniProt Q13547); experiment: HDAC inhibition assay (fluorogenic, Ac-Leu-Gly-Lys(Ac)-AMC); conditions: HDAC1, replicates
T4 construct: HDAC1 (full length, C-terminal His tag, C-terminal FLAG tag, BPS Bioscience, cat. #: 50051); FLAG (C); purchased BPS Bioscience 50051
T4 sequence (Q13547 whole entry): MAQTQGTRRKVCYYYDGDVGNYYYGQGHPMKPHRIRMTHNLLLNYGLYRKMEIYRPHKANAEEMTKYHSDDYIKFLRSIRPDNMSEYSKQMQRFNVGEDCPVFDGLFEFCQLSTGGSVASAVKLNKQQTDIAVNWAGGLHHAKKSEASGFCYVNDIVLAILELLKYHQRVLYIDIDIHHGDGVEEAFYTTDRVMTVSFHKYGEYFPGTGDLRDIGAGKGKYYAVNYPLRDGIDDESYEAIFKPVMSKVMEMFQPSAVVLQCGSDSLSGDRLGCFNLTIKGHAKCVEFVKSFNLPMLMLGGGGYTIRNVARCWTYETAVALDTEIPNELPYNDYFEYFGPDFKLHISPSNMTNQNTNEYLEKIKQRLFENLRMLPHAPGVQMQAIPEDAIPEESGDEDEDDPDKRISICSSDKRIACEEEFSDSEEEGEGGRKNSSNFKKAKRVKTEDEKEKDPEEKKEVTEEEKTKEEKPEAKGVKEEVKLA

HDAC3/NCoR2 = molecular target: T5, HDAC3/NCoR2 (Homo sapiens, UniProt O15379); experiment: as above; conditions: HDAC3, replicates
T5 construct: HDAC3/NCoR2 (full length, C-terminal His tag, NCoR2 N-terminal GST tag); purchased BPS Bioscience 50003
T5 sequence (O15379 whole entry): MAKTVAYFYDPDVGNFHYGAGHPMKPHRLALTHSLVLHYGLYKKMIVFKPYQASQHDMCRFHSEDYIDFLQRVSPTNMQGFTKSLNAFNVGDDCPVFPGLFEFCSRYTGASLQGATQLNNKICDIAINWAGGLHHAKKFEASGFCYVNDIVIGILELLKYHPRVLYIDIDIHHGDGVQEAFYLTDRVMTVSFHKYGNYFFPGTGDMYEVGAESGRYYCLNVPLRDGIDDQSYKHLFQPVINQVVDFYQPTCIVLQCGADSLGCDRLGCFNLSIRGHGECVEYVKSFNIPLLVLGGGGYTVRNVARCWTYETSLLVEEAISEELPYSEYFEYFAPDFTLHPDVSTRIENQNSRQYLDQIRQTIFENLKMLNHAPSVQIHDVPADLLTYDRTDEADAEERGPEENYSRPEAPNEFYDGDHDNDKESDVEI
T5 sequence (Q9Y618 389-480 partner limits assumed): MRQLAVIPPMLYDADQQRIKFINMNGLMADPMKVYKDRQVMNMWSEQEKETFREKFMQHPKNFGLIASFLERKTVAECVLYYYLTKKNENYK

[1] = log[inhibitor(M)] -10,5850266520292*

Question: For `CC(=O)N[C@@H](CCCCN)C(=O)NCC(=O)NCC(=O)N[C@@H](CCCCN)C(=O)NCC(=O)N[C@@H](CC(C)C)C(=O)NCC(=O)N[C@@H](CCCCCC(=O)NO)C(=O)NCC(=O)NCC(=O)N[C@@H](C)C(=O)N[C@@H](CCCCN)C(=O)N[C@@H](CCCNC(=N)N)C(=O)N[C@@H](Cc1c[nH]cn1)C(=O)N[C@@H](CCCNC(=N)N)C(=O)N[C@@H](Cc1c[nH]c2ccccc12)C(N)=O` [1a] (Ac-KGGKGLG[Asu](NHOH)GGAKRHRW-NH2), which “residual enzymatic activity relative to control wells” value (HDAC6; log[inhibitor(M)] -4.30103) is on record?
Answer: The value was 2.005 and 0.9042.

Question: What about the “residual enzymatic activity relative to control wells” value (HDAC6; log[inhibitor(M)] -5) of the same compound?
Answer: The value was 3.396 and 1.499.

Question: What about the “residual enzymatic activity relative to control wells” value (HDAC6; log[inhibitor(M)] -5.69897) of the same compound?
Answer: The value was 3.721 and 2.924.

Question: What about the “residual enzymatic activity relative to control wells” value (HDAC6; log[inhibitor(M)] -6.39794) of the same compound?
Answer: Its value is 6.701 and 7.197.

Question: What about the “residual enzymatic activity relative to control wells” value (HDAC6; log[inhibitor(M)] -7.09691) of the same compound?
Answer: The value was 17.8452 and 18.76.

Question: And the “residual enzymatic activity relative to control wells” value (HDAC6; log[inhibitor(M)] -7.79588)?
Answer: Its value is 40.4588 and 44.1884.

Question: And the “residual enzymatic activity relative to control wells” value (HDAC6; log[inhibitor(M)] -8.49485)?
Answer: The value was 67.624 and 70.0247.

Question: And the “residual enzymatic activity relative to control wells” value (HDAC6; log[inhibitor(M)] -9.19382)?
Answer: The value was 82.7418 and 78.8697.

Question: And the “residual enzymatic activity relative to control wells” value (HDAC6; log[inhibitor(M)] -9.89279)?
Answer: The value was 94.6266 and 87.8667.

Question: What about the “residual enzymatic activity relative to control wells” value (HDAC6; log[inhibitor(M)] -10.585) of the same compound?
Answer: Its value is 92.0979 and 95.7297.

Question: What about the “residual enzymatic activity relative to control wells” value (HDAC2; log[inhibitor(M)] -5) of the same compound?
Answer: Its value is 2.133 and 2.791.

Question: And the “residual enzymatic activity relative to control wells” value (HDAC2; log[inhibitor(M)] -5.69897)?
Answer: Its value is 7.69 and 10.6271.

Question: And the “residual enzymatic activity relative to control wells” value (HDAC2; log[inhibitor(M)] -7.79588)?
Answer: Its value is 81.9038 and 87.9722.

Question: What about the “residual enzymatic activity relative to control wells” value (HDAC2; [1]) of the same compound?
Answer: The value was 96,4513363* and 102,627848*.

Question: And the “residual enzymatic activity relative to control wells” value (HDAC8; log[inhibitor(M)] -4.30103)?
Answer: The value was 0.7299 and 0.6853.

Question: What about the “residual enzymatic activity relative to control wells” value (HDAC8; log[inhibitor(M)] -5) of the same compound?
Answer: Its value is 2.535 and 2.3091.

Question: What about the “residual enzymatic activity relative to control wells” value (HDAC8; log[inhibitor(M)] -5.69897) of the same compound?
Answer: Its value is 8.883 and 8.651.

Question: What about the “residual enzymatic activity relative to control wells” value (HDAC8; log[inhibitor(M)] -6.39794) of the same compound?
Answer: Its value is 23.8025 and 24.0279.

Question: And the “residual enzymatic activity relative to control wells” value (HDAC8; log[inhibitor(M)] -7.09691)?
Answer: The value was 53.2804 and 53.6221.

Question: What about the “residual enzymatic activity relative to control wells” value (HDAC8; log[inhibitor(M)] -7.79588) of the same compound?
Answer: Its value is 81.5639 and 82.7228.

Question: What about the “residual enzymatic activity relative to control wells” value (HDAC8; log[inhibitor(M)] -8.49485) of the same compound?
Answer: The value was 92.8692 and 94.6574.

Question: And the “residual enzymatic activity relative to control wells” value (HDAC8; log[inhibitor(M)] -9.19382)?
Answer: Its value is 96.2557 and 98.5897.

Question: What about the “residual enzymatic activity relative to control wells” value (HDAC8; log[inhibitor(M)] -9.89279) of the same compound?
Answer: The value was 97.4874 and 100.887.

Question: What about the “residual enzymatic activity relative to control wells” value (HDAC8; [1]) of the same compound?
Answer: Its value is 99,4860668* and 101,450216*.

Question: And the “residual enzymatic activity relative to control wells” value (HDAC1; log[inhibitor(M)] -4.30103)?
Answer: The value was 0.3873 and 0.804.

Question: And the “residual enzymatic activity relative to control wells” value (HDAC1; log[inhibitor(M)] -5)?
Answer: The value was 1.615 and 1.98.

Question: What about the “residual enzymatic activity relative to control wells” value (HDAC1; log[inhibitor(M)] -5.69897) of the same compound?
Answer: The value was 4.97 and 7.056.

Question: And the “residual enzymatic activity relative to control wells” value (HDAC1; log[inhibitor(M)] -6.39794)?
Answer: The value was 17.3755 and 23.9522.

Question: And the “residual enzymatic activity relative to control wells” value (HDAC1; log[inhibitor(M)] -7.09691)?
Answer: The value was 42.4661 and 51.6182.

Question: What about the “residual enzymatic activity relative to control wells” value (HDAC1; log[inhibitor(M)] -7.79588) of the same compound?
Answer: The value was 69.6554 and 78.2753.

Question: What about the “residual enzymatic activity relative to control wells” value (HDAC1; log[inhibitor(M)] -8.49485) of the same compound?
Answer: The value was 90.2096 and 95.3244.

Question: What about the “residual enzymatic activity relative to control wells” value (HDAC1; log[inhibitor(M)] -9.19382) of the same compound?
Answer: The value was 98.0899 and 101.545.

Question: And the “residual enzymatic activity relative to control wells” value (HDAC1; log[inhibitor(M)] -9.89279)?
Answer: The value was 100.633 and 103.923.

Question: What about the “residual enzymatic activity relative to control wells” value (HDAC1; [1]) of the same compound?
Answer: The value was 100,638665* and 104,135042*.

Question: And the “residual enzymatic activity relative to control wells” value (HDAC3/NCoR2; log[inhibitor(M)] -4.30103)?
Answer: Its value is 0,27707809* and 0,48240325*.

Question: And the “residual enzymatic activity relative to control wells” value (HDAC3/NCoR2; log[inhibitor(M)] -5)?
Answer: The value was 1.078 and 1.224.

Question: And the “residual enzymatic activity relative to control wells” value (HDAC3/NCoR2; log[inhibitor(M)] -5.69897)?
Answer: Its value is 2.835 and 3.644.

Question: What about the “residual enzymatic activity relative to control wells” value (HDAC3/NCoR2; log[inhibitor(M)] -6.39794) of the same compound?
Answer: The value was 8.976 and 10.8935.

Question: What about the “residual enzymatic activity relative to control wells” value (HDAC3/NCoR2; log[inhibitor(M)] -7.09691) of the same compound?
Answer: The value was 20.3107 and 23.0019.

Question: And the “residual enzymatic activity relative to control wells” value (HDAC3/NCoR2; log[inhibitor(M)] -7.79588)?
Answer: The value was 35.6703 and 40.8157.

Question: What about the “residual enzymatic activity relative to control wells” value (HDAC3/NCoR2; log[inhibitor(M)] -8.49485) of the same compound?
Answer: The value was 61.9563 and 69.3477.

Question: What about the “residual enzymatic activity relative to control wells” value (HDAC3/NCoR2; log[inhibitor(M)] -9.19382) of the same compound?
Answer: Its value is 85.7851 and 89.42.

Question: What about the “residual enzymatic activity relative to control wells” value (HDAC3/NCoR2; log[inhibitor(M)] -9.89279) of the same compound?
Answer: Its value is 97.8645 and 95.529.

Question: And the “residual enzymatic activity relative to control wells” value (HDAC3/NCoR2; log[inhibitor(M)] -10.585)?
Answer: The value was 99.8741 and 99.2523.
